Measured values from patent publication US20030212115A1, “Remedies for inflammatory bowel diseases” (priority 2000, published 2003).

Assays:
acetate-caused colitis = test: Acetate-caused colitis model; type: in vivo, Syrian strain male hamster; conditions: for area of ulcer: three times (18 h and 1 h before, 6 h after cause of colitis), anatomized 24 hours later, FIG. 1; for amount of the haemoglobin (index of the enteric hemorrhage): three times, washing supernatant of large intestine, 24 hours later, FIG. 2
Experimental: (1) Acetate-Caused Colitis Model.
After 1% aqueous acetic acid (10 ml/kg) is injected from anus of Syrian strain male hamster (7 weeks of ages) into large intestine with a flexible, oral sonde for rat, colitis was caused by clipping anus for 30 minutes. Distilled water was similarly injected into a normal group.
0.5% CMC (10 ml/kg) was orally administered to the normal group and the control group, and 10, 30 and 100 mg/10 ml/kg of a test drug suspended into 0.5% CMC were orally administered to the group administrated test drug three times in total, 18 hours and 1 hour before cause of colitis and 6 hours after cause, respectively.
They were anatomized 24 hours later, and large intestines of 7 cm length were sampled from anus. Then, these intestinals were incised, and these enterics were washed by physiological salt solution (5 ml). they were taken a picture of incised large intestines, and ulcer area (cm^2) was calculated by the image analysis. Moreover, the washing supernatant of large intestine was supplied for the measurement of the amount of the haemoglobin (index of the amount of the enteric hemorrhage).
As a test drug, 2-[5-amino-6-oxo-2-phenyl-1,6-dihydro-1-pyrimidinyl]-N-[1-[[5-(t-butyl)-1,3,4-oxadiazole-2-yl]carbonyl]-2-methylpropyl]acetamide (Compound 34) was used. FIG. 1 and FIG. 2 show the results.

[1] = system: picrylsulfonic acid (TNBS)-caused colitis; test: Picrylsulfonic acid (TNBS)-caused colitis model; type: in vivo, Syrian strain male hamster; conditions: for area of the ulcer: once a day before cause, then twice a day, anatomized 5 days later, FIG. 3; for amount of the haemoglobin (index of the enteric hemorrhage): supernatant of washing of large intestine, 5 days later, FIG. 4
Experimental: (2) Picrylsulfonic Acid (TNBS)-Caused Colitis Model.
After 90 mg/ml of TNBS/isotonic solution (with 15 vol % ethanol) liquor (0.1 ml/body) is injected from anus of Syrian strain male hamster (7 weeks of ages) into large intestine with a flexible, oral sonde for rat, colitis was caused by clipping anus for 30 minutes. Distilled water was similarly injected into a normal group.
0.5% CMC (10 ml/kg) was orally administered to the normal group and the control group, and 25, 50 and 100 mg/10 ml/kg doses of a test drug suspended into 0.5% CMC were orally administered to the group administrated test drug once a day before cause of colitis and twice a day until the day of cause before anatomy, respectively.
They were anatomized 5 days later, and large intestines of 3 cm length were sampled from anus. Then, these intestinals were incised, and these enterics were washed by physiological salt solution (2 ml). they were taken a picture of incised large intestines, and ulcer area (cm^2) was calculated by the image analysis. Moreover, the supernatant of washing of large intestine was supplied to the measurement of the amount of the haemoglobin (index of the amount of the enteric hemorrhage).
As a test drug, compound 34 was used as well as example (1). FIG. 3 and FIG. 4 show the results.

CC(C)C(NC(=O)Cn1c(-c2ccccc2)ncc(N)c1=O)C(=O)c1nnc(C(C)(C)C)o1 (centres unmarked) [compound 34, 2-[5-amino-6-oxo-2-phenyl-1,6-dihydro-1-pyrimidinyl]-N-[1-[[5-(t-butyl)-1,3,4-oxadiazole-2-yl]carbonyl]-2-methylpropyl]acetamide]
intentionally suppressed: area of ulcer (acetate-caused colitis; 30 mg/kg orally) | amount of the haemoglobin (index of the enteric hemorrhage) (acetate-caused colitis; 30 mg/kg orally) | area of ulcer (acetate-caused colitis; 100 mg/kg orally) | amount of the haemoglobin (index of the enteric hemorrhage) (acetate-caused colitis; 100 mg/kg orally) | area of the ulcer ([1]; 50 mg/kg orally) | amount of the haemoglobin (index of the enteric hemorrhage) ([1]; 50 mg/kg orally) | area of the ulcer ([1]; 100 mg/kg orally) | amount of the haemoglobin (index of the enteric hemorrhage) ([1]; 100 mg/kg orally)
